Measured values: patent EP4733303A1, “MUSCARINIC M4 RECEPTOR AGONIST AND USE THEREOF” (Haisco Pharmaceutical Group Co., Ltd., priority 2023, dated 2024)

These molecules were tested against T1, M4 receptor (Homo sapiens, UniProt P08173) (assay: PAM agonistic activity of compound on M4 receptor (FLIPR Calcium 6 assay in M4-CHO cells)). Settings: with acetylcholine (Ach), final concentration 3 nM.
T1 construct: expressed in transfected cells; host or cells: CHO (M4-CHO cells)
T1 sequence (P08173 1-479): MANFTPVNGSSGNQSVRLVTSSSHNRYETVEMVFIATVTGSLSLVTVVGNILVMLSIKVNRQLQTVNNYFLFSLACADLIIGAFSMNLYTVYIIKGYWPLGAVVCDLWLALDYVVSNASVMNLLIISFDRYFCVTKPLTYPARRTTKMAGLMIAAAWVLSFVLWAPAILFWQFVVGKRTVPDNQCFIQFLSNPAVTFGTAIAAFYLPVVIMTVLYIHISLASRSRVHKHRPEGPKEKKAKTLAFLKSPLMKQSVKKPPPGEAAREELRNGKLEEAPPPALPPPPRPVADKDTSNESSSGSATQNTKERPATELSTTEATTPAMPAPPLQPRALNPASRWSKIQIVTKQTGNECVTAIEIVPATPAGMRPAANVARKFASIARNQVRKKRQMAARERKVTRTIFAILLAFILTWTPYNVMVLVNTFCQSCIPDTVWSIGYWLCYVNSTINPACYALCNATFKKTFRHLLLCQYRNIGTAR
Format: cell-based
Procedure: • 1). Cell plating: M4-CHO cells were digested, collected, and resuspended. After cell counting, the cell suspension was seeded into a 384-well cell plate at a density of: 1.2 × 10^4 cells/25 µL/well. The cell plate was then cultured in a 37°C, 5% CO2 incubator for about 16-20 h. • 2). Day 2: Assay Buffer was prepared according to the instructions of the FLIPR Calcium 6 Assay Kit. Component A (20×) was thawed to room temperature and diluted with the Assay Buffer to prepare a loading buffer (1×), which was stored at room temperature until use. • 3). The culture medium was removed from the cell plate. 40 µL of the loading buffer (1×) was quickly added to each well. The cell plate was then centrifuged and incubated at 37°C in the dark for 120 min. • 4). Working solutions of the positive control compound and the test compounds were prepared. An acetylcholine (Ach) agonist compound solution was prepared (final concentration: 3 nM). The PAM compound and the Ach agonist solution were mixed at a 1 : 1 ratio, and the mixture was transferred into a 384-well compound source plate at 20 µL per well. • 5). The cell plate, the compound source plate, and the pipette tips were placed into the corresponding positions within the FLIPR instrument. 10 µL of the diluted compound from step 4 was added into each experimental well using the FLIPR Tetra. Data was collected at the wavelength of 515 nm-575 nm. • 6). The signal values were plotted against the compound concentrations. Nonlinear regression analysis was performed using GraphPad Prism software for curve fitting and EC50 calculation.
The experimental results are shown in Table 1, where A represents EC50 < […]; B represents 100 nM ≤ EC50 < 500 nM, and C represents 500 nM ≤ EC50. Table 1. Agonistic activity of compounds on M4 receptor
`Cc1cc(-c2cnn(C)c2)nc2c1CN(C(=O)CC1CN(c3ccnc(OC4CCOC4)c3)C1)C2` (centres unmarked) [Compound 170] showed an EC50 of less than 100 nM. `Cc1cc(C)c2c(n1)CN(C(=O)CC1CN(c3ccnc(Oc4cnn(C)c4)c3)C1)C2` [Compound 53] gave an EC50 of less than 100 nM. `Cc1cc(=O)n(C)c2c1CN(C(=O)CC1CN(c3ccnc(-n4ccc(C(F)(F)F)n4)c3)C1)C2` [Compound 160] was tested, and the EC50 was less than 100 nM. `Cc1cc(C)c2c(n1)CN(C(=O)CC1CN(c3ccnc(O[C@@H]4CCOC4)c3)C1)C2` [Compound 51] gave an EC50 of less than 100 nM. `C=C1CC(Oc2cc(N3CC(CC(=O)N4Cc5c(C)cc(=O)n(C(F)F)c5C4)C3)ccn2)C1` [Compound 184] showed an EC50 of less than 100 nM. `COc1nc(C)c2c(n1)CN(C(=O)CC1CN(c3ccnc(OC4CC(F)(F)C4)c3)C1)C2` [Compound 137] was tested, and the EC50 was less than 100 nM. In the case of `Cc1cc(C)c2c(n1)CN(C(=O)CC1CN(c3ccnc(OC4CC(F)(F)C4)c3)C1)C2` [Compound 25], the EC50 is reported as less than 100 nM. Molecule `Cc1cc(-c2cnn(C)c2)nc2c1CN(C(=O)CC1CN(c3ccnc(Oc4cnn(C)c4)c3)C1)C2` [Compound 171] has an EC50 of less than 100 nM. In the case of `Cc1cc(C)c2c(n1)CN(C(=O)CC1CN(c3ccnc(-c4ccc5ccnn5c4)c3)C1)C2` [Compound 63], the EC50 is reported as less than 100 nM. `Cc1c2c(nc3c1CN(C(=O)CC1CN(c4ccc5c(c4)CCC5=O)C1)C3)CCC2` [Compound 94] showed an EC50 of less than 100 nM. `Cc1cc(C)c2c(n1)CN(C(=O)CC1CN(c3ccnc(-c4noc(C(F)(F)F)n4)c3)C1)C2` [Compound 39] was tested, and the EC50 was less than 100 nM. Molecule `Cc1c2c(n(C)c(=O)c1F)CN(C(=O)CC1CN(c3ccnc(C(F)(F)F)c3)C1)C2` [Compound 176] has an EC50 of less than 100 nM. `Cc1c2c(n(C)c(=O)c1Cl)CN(C(=O)CC1CN(c3ccnc(OC4CC(F)(F)C4)c3)C1)C2` [Compound 116] showed an EC50 of less than 100 nM. For `Cc1cc(C2CCOC2)nc2c1CN(C(=O)CC1CN(c3ccnc(OC4CC(F)(F)C4)c3)C1)C2` (single isomer, unassigned) [Compound 154], the EC50 was less than 100 nM. `Cc1cc(-c2ccn(C)n2)nc2c1CN(C(=O)CC1CN(c3ccnc(C(F)(F)F)c3)C1)C2` [Compound 112] gave an EC50 of less than 100 nM. `Cc1c2c(n(C(F)F)c(=O)c1F)CN(C(=O)CC1CN(c3ccnc(OC4CC(F)(F)C4)c3)C1)C2` [Compound 177] gave an EC50 of less than 100 nM. `Cc1ccn(-c2cc(N3CC(CC(=O)N4Cc5nc(COC6CC6)cc(C)c5C4)C3)ccn2)n1` [Compound 91] showed an EC50 of less than 100 nM. Molecule `Cc1cc(=O)n(C(F)F)c2c1CN(C(=O)CC1CN(c3ccnc(Oc4cnn(C)c4)c3)C1)C2` [Compound 182] has an EC50 of less than 100 nM. For `Cc1cc(C2CCOC2)nc2c1CN(C(=O)CC1CN(c3ccnc(-n4ccc(F)n4)c3)C1)C2` (single isomer, unassigned) [Compound 187], the EC50 was less than 100 nM. For `Cc1cc(C)c2c(n1)CN(C(=O)CC1CN(c3ccnc(-c4cnsc4)c3)C1)C2` [Compound 21], the EC50 was less than 100 nM. Work on `Cc1ccn(-c2cc(N3CC(CC(=O)N4Cc5c(C)c(F)c(=O)n(C(F)F)c5C4)C3)ccn2)n1` [Compound 208] yielded an EC50 of less than 100 nM. `Cc1ccn(-c2cc(N3CC(CC(=O)N4Cc5nc(C6CCOC6)cc(C)c5C4)C3)ccn2)n1` (single isomer, unassigned) [Compound 186] was tested, and the EC50 was less than 100 nM. `Cc1ccn(-c2cc(N3CC(CC(=O)N4Cc5nc(-c6cnn(C)c6)nc(C)c5C4)C3)ccn2)n1` [Compound 123] was tested, and the EC50 was less than 100 nM. For `Cc1nc(-c2cnn(C)c2)nc2c1CN(C(=O)CC1CN(c3ccnc(OC4CCOC4)c3)C1)C2` (centres unmarked) [Compound 168], the EC50 was less than 100 nM. Work on `Cc1cc(C)c2c(n1)CN(C(=O)CC1CN(c3ccnc(-n4nccc4C)c3)C1)C2` [Compound 26] yielded an EC50 of less than 100 nM. `Cc1cc(=O)n(C)c2c1CN(C(=O)CC1CN(c3ccnc(OC4CC4)c3)C1)C2` [Compound 138] was tested, and the EC50 was less than 100 nM. Molecule `Cc1cc(C)c2c(n1)CN(C(=O)CC1CN(c3ccnc(-n4cncn4)c3)C1)C2` [Compound 58] has an EC50 of less than 100 nM. With `Cc1cc(C)c2c(n1)CN(C(=O)CC1CN(c3ccnc(-n4c(C)nnc4C(F)(F)F)c3)C1)C2` [Compound 43] the EC50 was less than 100 nM. `Cc1cc(C)c2c(n1)CN(C(=O)CC1CN(c3ccnc(-n4nc(C)cc4C)c3)C1)C2` [Compound 30] was tested, and the EC50 was less than 100 nM. In the case of `Cc1cc(-c2ccnn2C)nc2c1CN(C(=O)CC1CN(c3ccnc(OC4CC(F)(F)C4)c3)C1)C2` [Compound 158], the EC50 is reported as less than 100 nM. `Cc1cc(C)c2c(n1)CN(C(=O)CC1CN(c3ccnc(-n4cc(C)nc4C)c3)C1)C2` [Compound 75] was tested, and the EC50 was less than 100 nM. `Cn1c2c(c(F)cc1=O)CN(C(=O)CC1CN(c3ccnc(OC4CC(F)(F)C4)c3)C1)C2` [Compound 141] showed an EC50 of less than 100 nM. In the case of `Cc1cc(C2CCOC2)nc2c1CN(C(=O)CC1CN(c3ccnc(C(F)(F)F)c3)C1)C2` (centres unmarked) [Compound 125], the EC50 is reported as less than 100 nM. For `Cc1cc(-c2cnn(C)c2)nc2c1CN(C(=O)CC1CN(c3ccnc(OC4CCOC4)c3)C1)C2` (centres unmarked) [Compound 169], the EC50 was less than 100 nM. With `Cc1cc(C)c2c(n1)CN(C(=O)CC1CN(c3ccnc(Cn4cc(C(F)(F)F)cn4)c3)C1)C2` [Compound 189] the EC50 was less than 100 nM. `Cc1cc(-c2cnn(C(F)F)c2)nc2c1CN(C(=O)CC1CN(c3ccnc(C(F)(F)F)c3)C1)C2` [Compound 162] was tested, and the EC50 was less than 100 nM. `Cc1nc(-c2ccnn2C)nc2c1CN(C(=O)CC1CN(c3ccnc(OC4CC(F)(F)C4)c3)C1)C2` [Compound 144] gave an EC50 of less than 100 nM. Work on `C=C1CC(Oc2cc(N3CC(CC(=O)N4Cc5nc(C)cc(C)c5C4)C3)ccn2)C1` [Compound 121] yielded an EC50 of less than 100 nM. For `Cc1ccn(-c2cc(N3CC(CC(=O)N4Cc5nc(C6CCOC6)cc(C)c5C4)C3)ccn2)n1` (single isomer, unassigned) [Compound 185], the EC50 was less than 100 nM. `Cc1cc(C)c2c(n1)CN(C(=O)CC1CN(c3ccnc(-n4ccc(F)n4)c3)C1)C2` [Compound 76] was tested, and the EC50 was less than 100 nM. Molecule `Cc1cc(-c2cnn(C)c2)nc2c1CN(C(=O)CC1CN(c3ccnc(OC4CC(F)C4)c3)C1)C2` (single isomer, unassigned) [Compound 156] has an EC50 of less than 100 nM. In the case of `Cc1cc(C)c2c(n1)CN(C(=O)CC1CN(c3ccnc(-c4ccsc4)c3)C1)C2` [Compound 1], the EC50 is reported as less than 100 nM. `Cc1ncn(-c2cc(N3CC(CC(=O)N4Cc5nc(-c6cnn(C(F)F)c6)cc(C)c5C4)C3)ccn2)n1` [Compound 150] gave an EC50 of less than 100 nM. Work on `Cc1ccn(-c2cc(N3CC(CC(=O)N4Cc5nc(C)nc(N(C)C)c5C4)C3)ccn2)n1` [Compound 90] yielded an EC50 of less than 100 nM. Work on `Cc1cc(C)c2c(n1)CN(C(=O)CC1CN(c3ccnc(-c4cc(C(F)(F)F)nn4C)c3)C1)C2` [Compound 6] yielded an EC50 of less than 100 nM. `Cc1coc(-c2cc(N3CC(CC(=O)N4Cc5nc(C)cc(C)c5C4)C3)ccn2)n1` [Compound 78] was tested, and the EC50 was less than 100 nM. `Cc1cc(=O)n(C)c2c1CN(C(=O)CC1CN(c3ccc4c(c3)CCC4=O)C1)C2` [Compound 131] showed an EC50 of less than 100 nM. Work on `Cc1cc(C)c2c(n1)CN(C(=O)CC1CN(c3ccnc(-c4cnn(C(F)F)c4)c3)C1)C2` [Compound 5] yielded an EC50 of less than 100 nM. `Cc1cc(C)c2c(n1)CN(C(=O)CC1CN(c3ccnc(NC4CC(F)(F)C4)c3)C1)C2` [Compound 67] was tested, and the EC50 was less than 100 nM. `Cc1cc(C2CCOC2)nc2c1CN(C(=O)CC1CN(c3ccnc(C(F)(F)F)c3)C1)C2` (single isomer, unassigned) [Compound 152] gave an EC50 of less than 100 nM. `Cc1ncn(-c2nc(C)c3c(n2)CN(C(=O)CC2CN(c4ccnc(OC5CC(F)(F)C5)c4)C2)C3)n1` [Compound 163] showed an EC50 of less than 100 nM. For `Cc1ccn(-c2cc(N3CC(CC(=O)N4Cc5nc(C)c6c(c5C4)CCC6)C3)ccn2)n1` [Compound 87], the EC50 was less than 100 nM. For `Cc1csc(-c2cc(N3CC(CC(=O)N4Cc5nc(C)cc(C)c5C4)C3)ccn2)c1` [Compound 23], the EC50 was less than 100 nM. For `Cc1cc(C)c2c(n1)CN(C(=O)CC1CN(c3cnnc(-n4ccc(C)n4)c3)C1)C2` [Compound 102], the EC50 was less than 100 nM. `Cc1c2c(n(C)c(=O)c1F)CN(C(=O)CC1CN(c3ccnc(OC4CCOC4)c3)C1)C2` (centres unmarked) [Compound 199] was tested, and the EC50 was less than 100 nM. Molecule `Cc1cc(C)c2c(n1)CN(C(=O)CC1CN(c3ccnc(-n4cnnc4)c3)C1)C2` [Compound 108] has an EC50 of less than 100 nM. Molecule `Cc1cc(C)c2c(n1)CN(C(=O)CC1CN(c3ccnc(-n4cccn4)c3)C1)C2` [Compound 56] has an EC50 of less than 100 nM. `Cc1cc(C)c2c(n1)CN(C(=O)CC1CN(c3ccc4c(c3)C(F)C(F)C4)C1)C2` (racemic) [Compound 12, isomer 1] showed an EC50 of less than 100 nM. With `Cc1cc(C2CCOC2)nc2c1CN(C(=O)CC1CN(c3ccnc(OC4CC(F)(F)C4)c3)C1)C2` (single isomer, unassigned) [Compound 155] the EC50 was less than 100 nM.
